One data set deals with MOLM13. Put plainly: CellTiter-Blue cell viability, MOLM13. Format: cell-based. Particulars: Homo sapiens, MOLM-13; AML cell line, 72 hours. Here is the method: (§1) The anti-cancer efficacy of exemplary compounds of the application were assessed in vitro against different cancer cell lines. Cell viability was examined following treatment at various concentrations of inhibitor (0.097656-50 μM) using a CellTiter-Blue® cell viability assay. 1×10^4 cells/well were plated in 96-well assay plates in culture medium. All cells were grown in DMEM, IMDM and RPMI-1640 supplemented with 10% fetal bovine serum (FBS). In some instances, FBS was removed for periods ranging from 16-24 hours, and re-introduced with test compound addition. After 24 hrs, test compounds and vehicle controls were added to appropriate wells such that the final volume was 100 μl in each well. The cells were cultured for the desired test exposure period (72 hours) at 37° C. and 5% CO2. The assay plates were removed from 3° C. incubator and 20 μl/well of CellTiter-Blue® Reagent was added. The plates were incubated using standard cell culture conditions for 1-4 hours. Afterwards, the plates were shaken for 10 seconds and florescence was recorded at 560/590 nm using a Cytation 3 spectrophotometer. IC50 values were determined using non-linear regression analysis with GraphPad Prism 6.0 (GraphPad Software Inc.).
(In general: Alamar Blue is a resazurin reagent that responds to reducing activity.)

The test system of a further data set is MV4-11. Put plainly: CellTiter-Blue cell viability, MV4-11. To be noted: for IC50: Homo sapiens, MV4-11, AML cell line, 72 hours. It is filed as cell-based. Here is the method: as §1
The test system of data set [1] is primary human fibroblast cells (PHF). Put plainly: CellTiter-Blue cell viability, PHF. Format: cell-based. To be noted: non-cancerous, 72 hours. Here is the method:
as §1

Data set [2] deals with healthy human lung cells (MRC9). Put plainly: CellTiter-Blue cell viability, MRC9. Format: cell-based. Particulars: non-cancerous, 72 hours. The procedure:
as §1

Data set [3] concerns healthy keratinocyte cells (HaCaT). Put plainly: CellTiter-Blue cell viability, HaCaT. It is filed as cell-based. To be noted: Homo sapiens, non-cancerous, 72 hours. The procedure: as §1
Data set [4] deals with UFMylation pathway (UBA5, UFC1, UFM1, c-Myc) in MV4-11 cells. Put plainly: Western blot of UFMylation pathway in MV4-11 cells. Format: cell-based. Particulars: 8 hours, 0 to 1 μM. Here is the method: Post-treatment (8 hours) of MV4-11 cells with I-1 test compound at 1, 0.5, 0.25, 0.1 and 0 μM concentrations, all cells were lysed with radioimmunoprecipitation assay (RIPA) buffer: 20 mM Tris pH 7.4, 150 mM NaCl, 0.5% deoxycholate, 1% Triton X-100, 0.1% sodium dodecyl sulfate (SDS). Total protein was measured using BCA assay (Sigma). In each assay, clarified protein were resolved on a 4%-15% polyacrylamideSDS gel and transferred to a PVDF membrane (Bio-Rad). The membranes were blocked with 5% solution of skim milk powder in TBST and incubated for at least 1 hour followed by an overnight incubation at 4° C. in primary antibody (1:1000 dilution). Blots were probed with antibodies against UBA5, UFM1, UFC1, c-Myc, and beta-actin was used as a loading control (Santa Cruz Biotechnology catalog # sc-835). The PVDF membrane then washed with TBST (3 times for 5 minutes). A horseradish peroxides (HRP)-conjugated goat anti-mouse IgG secondary antibodies (Cell signaling Catalog #7076S) was applied to the membrane (1:5000 dilution) and incubated for 1 hour at room temperature. The blots were then rinsed again 3 times in TBST for 10 minutes. Bands were visualized using clarity western ECL substrate luminal/enhancer solution and peroxide solution 1:1 ratio for HRP secondary antibody, according to the manufacturer's instructions (Bio-Rad) and analyzed using Image lab software (Bio-Rad).

Another data set deals with ATCC3034. Put plainly: Cell viability, medulloblastoma ATCC3034. Particulars: medulloblastoma cell line. Format: cell-based. The procedure: as §1, with “Inc.). […]” for “Inc.).”
The next data set relates to D458. Put plainly: Cell viability, medulloblastoma D458. Particulars: medulloblastoma cell line. It is filed as cell-based. The procedure: as §1, with “Inc.). […]” for “Inc.).”
The nature of data set [5]: Intrinsic clearance in mouse hepatocytes.
Experimental: A stock of 100 μM test compound was prepared by diluting the 10 mM I-1 test compound in DMSO with a solution of 50% acetonitrile and 50% water. In a 96-well non-coated plate, 198 μL of hepatocytes was pipetted, and the plate was placed in the incubator on an orbital shaker to allow the hepatocytes to warm for 10 minutes. To this solution 2 μL of the 100 μM I-1 was added to start the reaction, and the plate was placed on an orbital shaker. […] The reaction solution was then vortexed for 10 minutes and centrifuged at 4,000 rpm for 30 minutes at 4° C. Next, 400 μL of the supernatant was transferred to one new 96-well plate, centrifuged at 4,000 rpm for 30 minutes at 4° C., and 100 μL of the supernatant was transferred to a new 96-well plate ensuring the pellet was not disturbed. 100 μL of ultrapure water was added to all samples for analysis by LC-MS/MS.
Injection volume was 10 μL.
Another data set deals with D425. Put plainly: Cell viability, medulloblastoma D425. To be noted: medulloblastoma cell line. Format: cell-based. Here is the method: as §1, with “Inc.). […]” for “Inc.).”

For the compound `O=S(=O)(c1c(F)c(F)c(F)c(F)c1F)N(Cc1ccc(C(F)(F)F)cc1)C1CC1` [Compound I-25, N-cyclopropyl-2,3,4,5,6-pentafluoro-N-(4-(trifluoromethyl)benzyl)benzenesulfonamide], the results for the 50% inhibitory concentration (IC50) (in the data set with MOLM13; in the data set with MV4-11; in [1]) were 1.05 µM, 0.95 µM and 3 µM, respectively.
Take `O=C(O)c1ccc(CN(C2CC2)S(=O)(=O)c2c(F)c(F)c(F)c(F)c2F)cc1` [Compound I-26, 4-(((N-cyclopropyl-2,3,4,5,6-pentafluorophenyl)sulfonamido)methyl)benzoic acid]: the IC50 turned out to be 1.9 µM in the data set on MOLM13, 1.2 µM in the data set with MV4-11 and 6.5 µM in data set [1].
Regarding `CC(C)N(Cc1ccc(F)cc1F)S(=O)(=O)c1c(F)c(F)c(F)c(F)c1F` [Compound I-49, N-(2,4-difluorobenzyl)-2,3,4,5,6-pentafluoro-N-isopropylbenzenesulfonamide], the IC50 amounted to 16.7 µM in data set [2], 4.2 µM with MOLM13, 1.01 µM in the data set with MV4-11 and 4.5 µM in data set [1].
Turning to `O=S(=O)(c1c(F)c(F)c(F)c(F)c1F)N(Cc1c(F)cc(F)cc1F)C1CCC1` [Compound I-47, N-cyclobutyl-2,3,4,5,6-pentafluoro-N-(2,4,6-trifluorobenzyl)benzenesulfonamide], the IC50 is 15.7 µM in data set [2], 8.4 µM in the data set with MOLM13, 1.14 µM with MV4-11 and 3.7 µM in data set [1].
Turning to `O=S(=O)(c1c(F)c(F)c(F)c(F)c1F)N(Cc1ccc(F)nc1)C1CC1` [Compound I-12, N-cyclopropyl-2,3,4,5,6-pentafluoro-N-((6-fluoropyridin-3-yl)methyl)benzenesulfonamide], the IC50 was found to be 18 µM in [2], 3.07 µM in the data set with MOLM13, 1.35 µM with MV4-11 and 5 µM in data set [1].
In the case of `N#Cc1ccc(CN(C2CC2)S(=O)(=O)c2c(F)c(F)c(F)c(F)c2F)cc1` [Compound I-23, N-(4-cyanobenzyl)-N-cyclopropyl-2,3,4,5,6-pentafluorobenzenesulfonamide], the IC50 in data set [2] turned out to be 7.8 µM; in the data set with MOLM13, 2.58 µM; with MV4-11, 0.99 µM; in data set [1] it was 5.5 µM.
Consider `COc1ccc(CN(C2CC2)S(=O)(=O)c2c(F)c(F)c(F)c(F)c2F)cc1` [Compound I-8, N-cyclopropyl-2,3,4,5,6-pentafluoro-N-(4-methoxybenzyl)benzenesulfonamide], for which the half-inhibitory concentration (IC50) in the data set on MOLM13 was 0.73 µM; in data set [3], 17.4 µM; in the data set with MV4-11 it was 0.93 µM.
In the case of `O=S(=O)(c1c(F)c(F)c(F)c(F)c1F)N(Cc1c(F)cc(F)cc1F)C1CC1` [Compound I-36, N-cyclopropyl-2,3,4,5,6-pentafluoro-N-(2,4,6-trifluorobenzyl)benzenesulfonamide], the IC50 worked out at 26 µM in data set [2], 6.81 µM with MOLM13, 1.52 µM in the data set on MV4-11 and 8.1 µM in data set [1].
In the case of `CC(C)N(Cc1ccc(F)cc1)S(=O)(=O)c1c(F)c(F)c(F)c(F)c1F` [Compound I-16, 2,3,4,5,6-pentafluoro-N-(4-fluorobenzyl)-N-isopropylbenzenesulfonamide], the IC50 was found to be 25 µM in data set [2], 3.5 µM with MOLM13, 1.2 µM in the data set on MV4-11 and 7.2 µM in data set [1].
The matching figures for `CC(C)N(Cc1ccccc1F)S(=O)(=O)c1c(F)c(F)c(F)c(F)c1F` [Compound I-48]: 15 µM, 4.11 µM, 1.19 µM and 3 µM.
`NC(=O)c1ccc(CN(C2CC2)S(=O)(=O)c2c(F)c(F)c(F)c(F)c2F)cc1` [Compound I-20, 4-(((N-cyclopropyl-2,3,4,5,6-pentafluorophenyl)sulfonamido)methyl)benzamide]: the values for the IC50 (in the data set with MOLM13; in the data set with MV4-11; in [1]) were 1.7 µM, 1.05 µM and 4.9 µM, respectively.
For `O=S(=O)(c1c(F)c(F)c(F)c(F)c1F)N(Cc1ccc(F)cc1)C1CCC1` [Compound I-55, N-cyclobutyl-2,3,4,5,6-pentafluoro-N-(4-fluorobenzyl)benzenesulfonamide], the IC50 amounted to 0.73 µM in the data set with MOLM13, 0.43 µM in the data set with MV4-11 and 2.5 µM in data set [1]. In addition, the “reduction of UBA5 levels and UFC1-UFM1 conjugate levels” value in [4] was “comparable activity to I-1”.
As for `O=S(=O)(c1c(F)c(F)c(F)c(F)c1F)N(Cc1ccc(F)cn1)C1CC1` [Compound I-13, N-cyclopropyl-2,3,4,5,6-pentafluoro-N-((5-fluoropyridin-2-yl)methyl)benzenesulfonamide], the concentration for half-maximal inhibition (IC50) was found to be 25 µM in [2], 1.1 µM in the data set on MOLM13, 1.7 µM with MV4-11 and 5.5 µM in [1].
As to `O=S(=O)(c1ccc(F)cc1)N(Cc1ccc(F)cc1)C1CC1` [Comparative Example 3, N-cyclopropyl-4-fluoro-N-(4-fluorobenzyl)benzenesulfonamide, reference compound], the IC50 (in [2]; in the data set with MOLM13; in data set [3]; in the data set with MV4-11) was > 25 µM throughout. Further, the “activity in AML cells” value in the data set on MV4-11 (AML cells (MV4-11 and MOLM13)) is “inactive”.
Consider `O=S(=O)(c1c(F)c(F)c(F)c(F)c1F)N(Cc1ccc(F)cc1)CC1CC1` [Compound I-2, N-(cyclopropylmethyl)-2,3,4,5,6-pentafluoro-N-(4-fluorobenzyl)benzenesulfonamide], for which the IC50 in [2] was determined as 7.7 µM; in the data set on MOLM13 it was 1.6 µM; with MV4-11, 0.85 µM; in data set [1], 2.9 µM.
As for `O=S(=O)(c1c(F)c(F)c(F)c(F)c1F)N(Cc1ccc(Cl)cc1)C1CC1` [Compound I-7, N-(4-chlorobenzyl)-N-cyclopropyl-2,3,4,5,6-pentafluorobenzenesulfonamide], the IC50 in data set [2] came out at 16.4 µM; in the data set on ATCC3034, 0.3 µM; in the data set on MOLM13, 3.5 µM; in the data set with D458, 2 µM; in the data set with D425 it was 1.4 µM; in the data set on MV4-11, 1.37 µM. Moreover, inhibition in [1] was half-maximal at 2.7 µM (IC50). The same compound displayed a half-life at 1 μM in data set [5] of 1.92 h.
Take `O=S(=O)(NC1CC1)c1c(F)c(F)c(F)c(F)c1F` [Comparative Example 6, N-cyclopropyl-2,3,4,5,6-pentafluorobenzenesulfonamide, reference compound]: the IC50 is 19.1 µM in data set [2], 7 µM in the data set with MOLM13 and 6.4 µM in the data set with MV4-11.
Take `O=S(=O)(c1c(F)c(F)c(F)c(F)c1F)N(Cc1cccc(N2CCOCC2)c1)C1CC1` [Compound I-34, N-cyclopropyl-2,3,4,5,6-pentafluoro-N-(3-morpholinobenzyl)benzenesulfonamide]: the IC50 in data set [2] is 14.1 µM; in the data set with MOLM13 it was 7.95 µM; in the data set with MV4-11, 0.96 µM.
`CC(C)(C)C(=O)N(Cc1ccc(F)cc1)S(=O)(=O)c1c(F)c(F)c(F)c(F)c1F` [Compound I-54, N-(4-fluorobenzyl)-N-((perfluorophenyl)sulfonyl)pivalamide]: the values for the IC50 (in the data set with MOLM13; in the data set with MV4-11; in data set [1]) were 1.7 µM, 0.7 µM and 3 µM, respectively.
On to `O=S(=O)(c1c(F)c(F)c(F)c(F)c1F)N(Cc1ccccc1F)C1CCC1` [Compound I-45, N-cyclobutyl-2,3,4,5,6-pentafluoro-N-(2-fluorobenzyl)benzenesulfonamide], for which the IC50 in [2] is 14.2 µM; in the data set with MOLM13, 3.9 µM; in the data set with MV4-11, 2.27 µM.
For the compound `O=S(=O)(c1c(F)c(F)c(F)c(F)c1F)N(Cc1ccccc1F)C1CC1` [Compound I-40, N-cyclopropyl-2,3,4,5,6-pentafluoro-N-(2-fluorobenzyl)benzenesulfonamide], the IC50 in the data set with MOLM13 was 3.2 µM; in the data set with MV4-11 it was 0.33 µM. The “reduction of UBA5 levels and UFC1-UFM1 conjugate levels” value in [4] was “comparable activity to I-1”.

One may read the IC50 as the point on the concentration scale where inhibition reaches its midpoint. The half-life is the time in which the quantity being followed falls by half. Low values mean rapid decline, high ones slow decline.

The record behind these values is patent publication US20200277268A1, “PENTAFLUOROPHENYL SULFONAMIDE COMPOUNDS, COMPOSITIONS AND USES THEREOF” (DALRIADA THERAPEUTICS INC., priority 2017, published 2020).
